Where two headings read alike, the source gives them in different places.
Columns and labels:
Type in all cases: physicochemical
[1] = Thermal stability, heating in a vacuum dryer at 50° C. and 100° C. (XRPD, HPLC); settings: for XRPD / HPLC/Area % (start: 99.88): vacuum dryer
Protocol: Samples of Eluxadoline alpha (5 g) were subjected to heating in a vacuum dryer at 50° C. and 100° C., for different periods of time.

[2] = Specific surface area (SSA), BET nitrogen
Protocol: Specific Surface Area (SSA) measurements (Bet Nitrogen) were determined using a Micromeritics ASAP 2000, specific surface area analyzer. Samples were subjected to the BET nitrogen adsorption analysis to determine the specific surface of the samples.
Sample tube: 10 cc bulb with ½″ stem
Sample mass: Approximately ½ full cell
Sample preparation: Degassing with nitrogen
Outgassing conditions: 40° C. (30 min)
Isothermal collection point: 20 adsorption points, in the range 0-1 P/P0
Isothermal data analysis range: 5 point BET in the range 0.05-0.20 P/P0
Equilibration interval: 5 s
Equilibration time out: 600 s

[3] = Texture analysis / density at 0.2 MPa; settings: 200 mg sample compressed in steel mould
Protocol: A simple and low sample consuming method for evaluation of the packing density of powders were obtained as compression profiles under low pressures using a die and a flat-faced punch fitted on a TA-XTplus Texture analyser (Stable Micro Systems Ltd., Godalming, UK). The small amount of 200 mg of sample is compressed in a steel mould (with the rate of displacement 0.03 mm/s). Also, a cyclic procedure (similar to tapping) was performed at maximal compressive displacement 0.5 mm, then retracting, relaxation for 15 s and then repeated compressive steps (altogether up to 20 steps).

[4] = Polymorph stability on storage at various relative humidity (PXRD)
Protocol: Sample after being powdered in a mortar and pestle is applied directly on a silicon plate holder. The X-ray powder diffraction pattern was measured with Philips X'Pert PRO X-ray powder diffractometer, equipped with Cu irradiation source=1.54184 Å(Ångström), X'Celerator (2.022° 2θ) detector. Scanning parameters: angle range: 3-40 deg., step size 0.0167, time per step 37 s, continuous scan.
(§1) The obtained amorphous form was stored at various conditions, and the PXRD was analyzed after 3 and 7 days:
The obtained pure amorphous form was stored at various conditions, and the PXRD was analyzed after 3 and 7 days:
(§2) The obtained form alpha was stored at various conditions, and the PXRD was analyzed after 3 and 8 days:
(§3) The obtained amorphous form was stored at various conditions of relative humidity, and the PXRD was obtained after 1M (Table 4):
(§4) The obtained amorphous form was stored at various conditions, and the PXRD was obtained after 2M (Table 5):
(§5) XRPD pattern is shown in FIG. 16; SEM image is shown in FIG. 17; DSC thermogram is shown in FIG. 21 and TGA thermogram is shown in FIG. 22. The obtained form alpha was stored at various conditions, and the PXRD was obtained after 8, 14, and 21 days (Table 6): […]

[5] = % weight loss / water content (TGA, KF) after storage at various relative humidity; settings: for % weight loss/water cont. - after 1 M, TGA: TGA up to 190° C.
Protocol: as §1, §2, §3, §4, §5

[6] = Dissolution in 50 mM phosphate buffer pH = 7.4 at 37° C.; settings: 50 mM phosphate buffer pH = 7.4, 37° C.
Protocol: Samples were prepared and analysed in duplicate. About 20 mg of each sample were weighed into 500 ml Erlenmeyer flask, 200 ml of 50 mM phosphate buffer pH=7.4, previously heated to 37° C. were added and flasks were shaken at 110 rpm for 60 minutes at 37±0.2° C. in an incubator shaker. 3 ml aliquots were taken at 5, 10, 20, 30, 45 and 60 min, filtered through 0.45 μm Chromafil Xtra RC 45/25 syringe filter and analysed by UV/VIS spectrometer (absorbance at 203 nm).
The measurement was performed using the following instruments: • pH/Ion meter PHM 240, MeterLab, Radiometer Analytical • Incubator shaker Innova 4080, New Brunswick Scientific, 19 mm diameter circular orbit • UV/VIS spectrometer Varian Cary 50 Bio, 1 mm quartz cell Results of Eluxadoline samples dissolution in 50 mM phosphate buffer pH=7.4 are summarized in Table 8 below: […]

[7] = Flow function, FT4 Powder Rheometer, Freeman shear test 9 kPa; settings: PSD/μm 10/60/164
Protocol: The Flow function was determined by using FT4 Powder Rheometer, Freeman FT4 instrument, and standard Freeman shear test—9 kPa (using small cell 1 ml), according to method below:
1. Compact to 9 kPa for 60 s
2. Pre shear hold 7 kPa for 16 s
3. Shear test at 7 kPa (Shear at 18°/min for 10°, auto detected peak torque yes)
4. Pre shear hold 6 kPa for 16 s
5. Shear test at 6 kPa (Shear at 18°/min for 10°, auto detected peak torque yes)
6. Pre shear hold 5 kPa for 16 s
7. Shear test at 5 kPa (Shear at 18°/min for 10°, auto detected peak torque yes)
8. Pre shear hold 4 kPa for 16 s
9. Shear test at 4 kPa (Shear at 18°/min for 10°, auto detected peak torque yes)
10. Pre shear hold 3 kPa for 16 s
11. Shear test at 3 kPa (Shear at 18°/min for 10°, auto detected peak torque yes)

SMILES: COc1ccc(CN(C(=O)[C@@H](N)Cc2c(C)cc(C(N)=O)cc2C)[C@@H](C)c2nc(-c3ccccc3)c[nH]2)cc1C(=O)O [Eluxadoline alpha form, Eluxadoline]
- XRPD ([1]; 50 ° C., 1 h): alpha
- XRPD ([1]; 50 ° C., 2 h): alpha
- XRPD ([1]; 50 ° C., 3 h): alpha
- HPLC/Area % (start: 99.88) ([1]; 50 ° C., 3 h): 99.91 Area %
- XRPD ([1]; 100 ° C., 1 h): alpha
- XRPD ([1]; 100 ° C., 2 h): alpha
- XRPD ([1]; 100 ° C., 3 h): alpha
- HPLC/Area % (start: 99.88) ([1]; 100 ° C., 3 h): 99.91 Area %
- stability by XRPD and HPLC on heating ([1]; vacuum dryer at 50° C. and 100° C., different periods of time): stable
- SSA ([2]; listed as Eluxadoline form alpha): about 9.63 m^2/g

SMILES: COc1ccc(CN(C(=O)[C@@H](N)Cc2c(C)cc(C(N)=O)cc2C)[C@@H](C)c2nc(-c3ccccc3)c[nH]2)cc1C(=O)O [Eluxadoline alpha-lower particle size, Eluxadoline]
- Density at 0.2 MPa [3]: 0.5190 mg/mm^3

SMILES: COc1ccc(CN(C(=O)[C@@H](N)Cc2c(C)cc(C(N)=O)cc2C)[C@@H](C)c2nc(-c3ccccc3)c[nH]2)cc1C(=O)O [Example 10, Eluxadoline]
- PXRD results - after 7 days ([4]; 0% RH, 7 days): amorphous
- PXRD results - after 7 days ([4]; 20% RH, 7 days): amorphous
- PXRD results - after 7 days ([4]; 40% RH, 7 days): amorphous
- PXRD results - after 7 days ([4]; 60% RH, 7 days): amorphous
- PXRD results - after 7 days ([4]; 80% RH, 7 days): amorphous
- PXRD results - after 7 days ([4]; 100% RH, 7 days): amorphous
- PXRD results - after 7 days ([4]; As is): amorphous
- % weight loss/water cont. - after 7 days, TGA ([5]; 0% RH, 7 days): TGA-7.96%
- % weight loss/water cont. - after 7 days, KF ([5]; 20% RH, 7 days): 9.01%
- % weight loss/water cont. - after 7 days, TGA ([5]; 20% RH, 7 days): 7.96%
- % weight loss/water cont. - after 7 days, KF ([5]; 40% RH, 7 days): 9.11%
- % weight loss/water cont. - after 7 days, TGA ([5]; 40% RH, 7 days): 8.15%
- % weight loss/water cont. - after 7 days, KF ([5]; 60% RH, 7 days): 9.91%
- % weight loss/water cont. - after 7 days, TGA ([5]; 60% RH, 7 days): 8.88%
- % weight loss/water cont. - after 7 days, KF ([5]; 80% RH, 7 days): 13.30%
- % weight loss/water cont. - after 7 days, TGA ([5]; 80% RH, 7 days): 11.88%
- % weight loss/water cont. - after 7 days, KF ([5]; 100% RH, 7 days): 15.69%
- % weight loss/water cont. - after 7 days, TGA ([5]; 100% RH, 7 days): 15.03%
- % weight loss/water cont. - after 7 days, TGA ([5]; As is): TGA-5.97%

SMILES: COc1ccc(CN(C(=O)[C@@H](N)Cc2c(C)cc(C(N)=O)cc2C)[C@@H](C)c2nc(-c3ccccc3)c[nH]2)cc1C(=O)O [Example 11, Eluxadoline]
- PXRD results after 7 days ([4]; 0% RH, 7 days): amorphous
- PXRD results after 7 days ([4]; 20% RH, 7 days): amorphous
- PXRD results after 7 days ([4]; 40% RH, 7 days): amorphous
- PXRD results after 7 days ([4]; 60% RH, 7 days): amorphous
- PXRD results after 7 days ([4]; 80% RH, 7 days): amorphous
- PXRD results after 7 days ([4]; 100% RH, 7 days): amorphous

SMILES: COc1ccc(CN(C(=O)[C@@H](N)Cc2c(C)cc(C(N)=O)cc2C)[C@@H](C)c2nc(-c3ccccc3)c[nH]2)cc1C(=O)O [Example 12, 5-(((S)-2-amino-3-(4-carbamoyl-2,6-dimethylphenyl)-N—((S)-1-(4-phenyl-1H-imidazol-2-yl)ethyl)propanamido)methyl)-2-methoxybenzoic acid]
- PXRD results after 8 days ([4]; 0% RH): alpha
- PXRD results after 8 days ([4]; 20% RH): alpha
- PXRD results after 8 days ([4]; 40% RH): alpha
- PXRD results after 8 days ([4]; 60% RH): alpha
- PXRD results after 8 days ([4]; 80% RH): alpha
- % weight loss after 8 days by TGA ([5]; as is, TGA up to 121° C.): TGA* = 1.29%

SMILES: COc1ccc(CN(C(=O)[C@@H](N)Cc2c(C)cc(C(N)=O)cc2C)[C@@H](C)c2nc(-c3ccccc3)c[nH]2)cc1C(=O)O [Example 20]
- PXRD results - after 1 M ([4]; 0% RH, 1 M): amorphous
- PXRD results - after 1 M ([4]; 20% RH, 1 M): amorphous
- PXRD results - after 1 M ([4]; 40% RH, 1 M): amorphous
- PXRD results - after 1 M ([4]; 60% RH, 1 M): amorphous
- PXRD results - after 1 M ([4]; 80% RH, 1 M): amorphous
- PXRD results - after 1 M ([4]; 100% RH, 1 M): amorphous
- PXRD results - after 1 M ([4]; As is): amorphous
- % weight loss/water cont. - after 1 M, TGA ([5]; 0% RH, 1 M): TGA-7.42%
- % weight loss/water cont. - after 1 M, TGA ([5]; 20% RH, 1 M): TGA-8.42%
- % weight loss/water cont. - after 1 M, TGA ([5]; 40% RH, 1 M): TGA-9.34%
- % weight loss/water cont. - after 1 M, TGA ([5]; 60% RH, 1 M): TGA-10.36%
- % weight loss/water cont. - after 1 M, TGA ([5]; 80% RH, 1 M): TGA-12.89%
- % weight loss/water cont. - after 1 M, TGA ([5]; 100% RH, 1 M): TGA-15.23%
- % weight loss/water cont. - after 1 M, TGA ([5]; As is): TGA-5.79%
- % dissolved ([6]; 5 min): 63.21%
- % dissolved ([6]; 10 min): 81.56%
- % dissolved ([6]; 20 min): 91.46%
- % dissolved ([6]; 30 min): 93.81%
- % dissolved ([6]; 45 min): 94.48%
- % dissolved ([6]; 60 min): 94.50%

SMILES: COc1ccc(CN(C(=O)[C@@H](N)Cc2c(C)cc(C(N)=O)cc2C)[C@@H](C)c2nc(-c3ccccc3)c[nH]2)cc1C(=O)O [Example 21]
- PXRD results - after 2 M ([4]; 0% RH, 2 M): amorphous
- PXRD results - after 2 M ([4]; 20% RH, 2 M): amorphous
- PXRD results - after 2 M ([4]; 40% RH, 2 M): amorphous
- PXRD results - after 2 M ([4]; 60% RH, 2 M): amorphous
- PXRD results - after 2 M ([4]; 80% RH, 2 M): amorphous
- PXRD results - after 2 M ([4]; 100% RH, 2 M): amorphous
- PXRD results - after 2 M ([4]; As is): amorphous
- % weight loss/water cont. after 2 M KF ([5]; 0% RH, 2 M): 8.56%
- % weight loss/water cont. after 2 M KF ([5]; 20% RH, 2 M): 9.17%
- % weight loss/water cont. after 2 M KF ([5]; 40% RH, 2 M): 10.50%
- % weight loss/water cont. after 2 M KF ([5]; 60% RH, 2 M): 11.93%
- % weight loss/water cont. after 2 M KF ([5]; 80% RH, 2 M): 14.15%
- % weight loss/water cont. after 2 M KF ([5]; 100% RH, 2 M): 14.54%
- % weight loss/water cont. after 2 M KF ([5]; As is): 4.42%
- Classification of powder flowability after Jenike [7]: Free-flowing (10 < FF)
- Flow Function, (FF) ([7]; shear test 9 kPa): 10.08
- SSA [2]: 1.243 m^2/g

SMILES: COc1ccc(CN(C(=O)[C@@H](N)Cc2c(C)cc(C(N)=O)cc2C)[C@@H](C)c2nc(-c3ccccc3)c[nH]2)cc1C(=O)O [amorphous Eluxadoline, Eluxadoline]
- changes of samples exposed to RH (stability of amorphous form) ([4]; RH 0-10% for a 7 day period): did not show any changes
